Laboratory results as given in article PMC11356571, “The Comparative Metabolism of a Novel Hepatocellular Carcinoma Therapeutic Agent, 2,3-Diamino-N-(4-(benzo[d]thiazol-2-yl)phenyl)propanamide, in Human and Animal Hepatocytes” (Metabolites, 2024).

Key:
Type in all cases: in vitro ADME
CYP2A6 = molecular target: T1, CYP2A6 (Homo sapiens, UniProt P11509); experiment: Incubation with human cDNA-expressed CYP2A6; conditions: CYP2A6, 30 min at 37 °C with NADPH; ETN101 10 μM or M1 1 μM
T1 construct: purchased Corning Life Sciences (Woburn, MA, USA)
T1 sequence (P11509 1-494): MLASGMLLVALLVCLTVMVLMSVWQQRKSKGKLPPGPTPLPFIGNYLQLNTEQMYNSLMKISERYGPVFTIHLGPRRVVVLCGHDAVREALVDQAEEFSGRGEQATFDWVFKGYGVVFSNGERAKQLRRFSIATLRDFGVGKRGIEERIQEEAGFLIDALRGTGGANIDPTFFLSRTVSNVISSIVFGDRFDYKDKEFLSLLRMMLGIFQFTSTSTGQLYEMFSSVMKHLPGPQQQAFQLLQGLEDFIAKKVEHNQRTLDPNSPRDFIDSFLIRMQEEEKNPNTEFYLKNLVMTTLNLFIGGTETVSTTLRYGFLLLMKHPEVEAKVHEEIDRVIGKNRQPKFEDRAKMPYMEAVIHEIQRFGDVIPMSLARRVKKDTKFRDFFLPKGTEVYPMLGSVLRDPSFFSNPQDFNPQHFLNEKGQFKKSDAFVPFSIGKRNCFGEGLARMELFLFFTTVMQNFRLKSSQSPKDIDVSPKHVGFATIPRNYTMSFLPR
Protocol: (§1) ETN101 or M1 was incubated with nine human cDNA-expressed CYP enzymes (1A2, 2A6, 2B6, 2C8, 2C9, 2C19, 2D6, 2E1, and 3A4) to identify the CYPs involved in the metabolism of ETN101. Based on the preliminary study, the incubation conditions were determined as follows: Briefly, reaction mixtures of 50 μL containing ETN101 (final concentration: 10 μM) or M1 (final concentration: 1 μM), and CYPs (final amount: 5 pmol for CYP1A2, 2A6, 2C8, 2C9, 2C19, 2D6, and 3A4; 10 pmol for CYP2B6 and 2E1) were prepared in 0.1 M potassium phosphate buffer. The reaction was initiated by adding 50 μL of NADPH- regenerating system; the mixtures were incubated for 0 min or 30 min at 37 °C in triplicate. Reactions were terminated by the addition of 100 μL of ice-cold acetonitrile containing the IS (camptothecin, 200 ng/mL). Samples were centrifuged at 13,000 rpm for 5 min at 4 °C. An aliquot of 2 μL supernatant was injected in LC–MS/MS system.
(§2) For enzyme characterization, an Agilent 6460 triple quadrupole mass spectrometer coupled with a 1260 HPLC system (Agilent Technologies, Santa Clara, CA, USA) and a Kinetex Halo® C18 column (2.7 μm, 2.1 × 50 mm, Advanced Material Technology, Wilmington, DE, USA) were used for chromatographic separation. […] ETN101, M1, and M2 were detected via MRM using ESI in the positive mode. […]

CES1c = molecular target: T2, CES1c (Homo sapiens, UniProt P23141); experiment: Incubation with human recombinant CES1c; conditions: 60 min at 37 °C, ETN101 10 μM or M1 1 μM
T2 construct: purchased Corning Life Sciences (Woburn, MA, USA)
T2 sequence (P23141 18-566 isoform P23141-3 limits assumed): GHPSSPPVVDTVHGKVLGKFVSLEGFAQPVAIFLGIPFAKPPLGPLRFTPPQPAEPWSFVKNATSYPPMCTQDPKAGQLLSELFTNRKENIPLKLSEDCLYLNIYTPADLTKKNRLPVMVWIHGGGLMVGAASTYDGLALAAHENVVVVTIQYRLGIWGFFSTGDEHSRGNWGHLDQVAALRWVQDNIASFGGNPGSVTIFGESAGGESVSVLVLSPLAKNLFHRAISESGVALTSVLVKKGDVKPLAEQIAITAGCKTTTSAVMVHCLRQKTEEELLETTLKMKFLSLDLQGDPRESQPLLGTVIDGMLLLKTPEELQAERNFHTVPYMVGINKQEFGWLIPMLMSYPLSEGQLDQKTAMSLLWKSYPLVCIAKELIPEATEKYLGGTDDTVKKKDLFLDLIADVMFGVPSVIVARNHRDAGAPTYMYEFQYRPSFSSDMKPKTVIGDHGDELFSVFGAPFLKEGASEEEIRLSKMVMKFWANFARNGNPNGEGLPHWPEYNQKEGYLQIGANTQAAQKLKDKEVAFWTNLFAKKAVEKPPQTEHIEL
Protocol: To screen for CES enzymes responsible for the hydrolysis of ETN101 or M1, 50 μL of reaction mixtures containing human cDNA-expressed CES enzymes (CES1b, CES1c, and CES2) at the concentration of 1 mg/mL, 10 μM ETN101, or 1 μM M1 in 0.1 M potassium phosphate buffer were incubated at 37 °C for 0 min or 60 min in triplicate. The reactions were quenched by adding 50 μL of ice-cold acetonitrile containing the internal standard (camptothecin, 10 μg/mL). Following centrifugation at 13,000 rpm for 5 min, a 2 μL aliquot of the supernatant was injected into the LC-MS/MS system. The reliability of the analysis was confirmed by incorporating three different levels of quality control samples at the beginning and end of each analytical batch.
as §2, with “separation. The mobile phases comprised 0.1% (v/v) formic acid in water (mobile phase A) and 0.1% formic acid (v/v) in acetonitrile (mobile phase B).” for “separation.”

CYP2C19 = molecular target: T3, CYP2C19 (Homo sapiens, UniProt P33261); experiment: Incubation with human cDNA-expressed CYP2C19; conditions: CYP2C19, 30 min at 37 °C with NADPH; ETN101 10 μM or M1 1 μM
T3 construct: purchased Cypex Ltd. (Dundee, UK)
Protocol: as §1, §2

T3 sequence (P33261 whole entry): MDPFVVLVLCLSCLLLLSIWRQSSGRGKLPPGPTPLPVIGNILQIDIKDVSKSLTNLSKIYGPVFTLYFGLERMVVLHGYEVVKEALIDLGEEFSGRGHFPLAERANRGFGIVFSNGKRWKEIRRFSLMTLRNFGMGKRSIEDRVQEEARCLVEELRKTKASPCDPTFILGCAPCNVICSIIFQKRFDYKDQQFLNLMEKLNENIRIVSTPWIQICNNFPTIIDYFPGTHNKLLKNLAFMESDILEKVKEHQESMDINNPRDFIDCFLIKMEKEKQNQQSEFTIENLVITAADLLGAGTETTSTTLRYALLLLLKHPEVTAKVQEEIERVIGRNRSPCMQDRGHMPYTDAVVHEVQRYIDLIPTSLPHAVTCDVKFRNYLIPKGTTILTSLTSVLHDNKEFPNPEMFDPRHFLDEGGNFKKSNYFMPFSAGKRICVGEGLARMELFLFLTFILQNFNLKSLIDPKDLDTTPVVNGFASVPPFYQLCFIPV

| SMILES | Percentage remaining (CYP2A6) [%] | Percentage remaining (CES1c) [%] | Percentage remaining (CYP2C19) [%] |
| --- | --- | --- | --- |
| NCC(N)C(=O)Nc1ccc(-c2nc3ccccc3s2)cc1 (stereo not drawn) [ETN101, 2,3-diamino-N-(4-(benzo[d]thiazol-2-yl)phenyl)propanamide] | 115.6 | 107.3 | 113.0 |
| Nc1ccc(-c2nc3ccccc3s2)cc1 [M1, 2-(4-aminophenyl)benzothiazole] | 105.9 | 122.7 | 68.7 |
